Laboratory results as given in PubChem BioAssay AID248 (DTP/NCI, 2004).
Inconclusive results and toxic doses are left out. Cut-off read from the data, not from the text of the source: active = T/C of 150% or more; inactive = T/C below 125%.

Test system: L1210 leukemia ip in BDF1 mice, survival T/C
Assay: NCI In Vivo Anticancer Drug Screen. Data for tumor model L1210 Leukemia (intraperitoneal) in B6D2F1 (BDF1) mice
Settings: endpoint: mean survival time, higher = longer survival
Outline: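 Each compound was tested against a transplantable tumor grown in mice. The endpoint was survival, with treated animals benchmarked against vehicle controls as a simple ratio.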

[1] = dose: 100.0 mg/kg/injection, schedule: Q04DX003 (ip), vehicle: saline with Tween-80
[2] = dose: 400.0 mg/kg/injection, schedule: Q04DX003 (ip), vehicle: saline with Tween-80
[3] = dose: 50.0 mg/kg/injection, schedule: Q04DX003 (ip), vehicle: Klucel (hydroxypropylcellulose) (HPC)
[4] = dose: 100.0 mg/kg/injection, schedule: Q01DX001 (ip), vehicle: Klucel (hydroxypropylcellulose) (HPC)
[5] = dose: 100.0 mg/kg/injection, schedule: Q04DX003 (ip), vehicle: Klucel (hydroxypropylcellulose) (HPC)
[6] = dose: 200.0 mg/kg/injection, schedule: Q01DX001 (ip), vehicle: Klucel (hydroxypropylcellulose) (HPC)
[7] = dose: 400.0 mg/kg/injection, schedule: Q01DX001 (ip), vehicle: Klucel (hydroxypropylcellulose) (HPC)
[8] = dose: 100.0 mg/kg/injection, schedule: Q01DX001 (ip), vehicle: saline
[9] = dose: 200.0 mg/kg/injection, schedule: Q01DX001 (ip), vehicle: saline
[10] = dose: 200.0 mg/kg/injection, schedule: Q04DX003 (ip), vehicle: saline with Tween-80
[11] = dose: 25.0 mg/kg/injection, schedule: Q01DX009 (ip), vehicle: saline with Tween-80
[12] = dose: 50.0 mg/kg/injection, schedule: Q01DX009 (ip), vehicle: saline with Tween-80

Measured: T/C

Brc1sccc1-c1cccc2ccccc12
inactive: [1] 94 % of control | [2] 91 % of control

CCOC(=O)c1[nH]c(COC(C)=O)c(CCC(=O)O)c1C
inactive: dose: 25.0 mg/kg/injection, schedule: Q04DX003 (ip), vehicle: Klucel (hydroxypropylcellulose) (HPC) 101 % of control | [3] 95 % of control | [4] 101 % of control | [5] 98 % of control | [6] 93 % of control | [7] 88 % of control

O=C(CCl)c1c(O)[n+](Cc2ccccc2)c2ccccn12
inactive: dose: 25.0 mg/kg/injection, schedule: Q04DX003 (ip), vehicle: saline 100 % of control | dose: 50.0 mg/kg/injection, schedule: Q04DX003 (ip), vehicle: saline 96 % of control | [8] 91 % of control | dose: 100.0 mg/kg/injection, schedule: Q04DX003 (ip), vehicle: saline 91 % of control | dose: 150.0 mg/kg/injection, schedule: Q04DX003 (ip), vehicle: saline 97 % of control | [9] 94 % of control | dose: 225.0 mg/kg/injection, schedule: Q04DX003 (ip), vehicle: saline 103 % of control | dose: 335.0 mg/kg/injection, schedule: Q04DX003 (ip), vehicle: saline 106 % of control

CN(Cc1ccc2nc(N)nc(N)c2c1)c1ccc(C(=O)NC(CCC(=O)O)C(=O)O)cc1 (stereo not given)
inactive: dose: 0.12 mg/kg/injection, schedule: Q01DX009 (ip), vehicle: other 123 % of control | dose: 2.1 mg/kg/injection, schedule: Q01DX009 (ip), vehicle: other 101 % of control | dose: 2.5 mg/kg/injection, schedule: Q01DX009 (ip), vehicle: saline 113 % of control | dose: 5.0 mg/kg/injection, schedule: Q01DX009 (ip), vehicle: saline 97 % of control | dose: 6.6 mg/kg/injection, schedule: Q01DX001 (ip), vehicle: other 119 % of control | dose: 6.6 mg/kg/injection, schedule: Q01DX001 (ip), vehicle: saline 119 % of control
active: dose: 0.5 mg/kg/injection, schedule: Q01DX009 (ip), vehicle: other 192 % of control | dose: 1.0 mg/kg/injection, schedule: Q01DX009 (ip), vehicle: other 190 % of control | dose: 1.25 mg/kg/injection, schedule: Q01DX009 (ip), vehicle: saline 154 % of control | dose: 5.0 mg/kg/injection, schedule: Q01DX001 (ip), vehicle: other 151 % of control | dose: 10.0 mg/kg/injection, schedule: Q01DX001 (ip), vehicle: other 159 % of control | dose: 15.0 mg/kg/injection, schedule: Q01DX001 (ip), vehicle: other 154 % of control

COC1OCC(O)C(O)C1OS(C)(=O)=O (stereo not given)
inactive: [8] 110 % of control | [9] 101 % of control | dose: 400.0 mg/kg/injection, schedule: Q01DX001 (ip), vehicle: saline 104 % of control

O=[N+]([O-])c1ccc(Cl)c2c([N+](=O)[O-])cccc12
inactive: [1] 94 % of control | [10] 102 % of control

N=c1ccn(CC(Cl)COc2ccccc2)cc1 (stereo not given)
inactive: dose: 5.0 mg/kg/injection, schedule: Q01DX001 (ip), vehicle: saline 103 % of control | dose: 10.0 mg/kg/injection, schedule: Q01DX001 (ip), vehicle: saline 105 % of control | dose: 20.0 mg/kg/injection, schedule: Q01DX001 (ip), vehicle: saline 105 % of control | dose: 40.0 mg/kg/injection, schedule: Q01DX001 (ip), vehicle: saline 100 % of control | dose: 80.0 mg/kg/injection, schedule: Q01DX001 (ip), vehicle: saline 105 % of control | [8] 101 % of control

O=C1c2cccc(S(=O)(=O)O)c2C(=O)c2c1cccc2S(=O)(=O)O
inactive: dose: 50.0 mg/kg/injection, schedule: Q01DX001 (ip), vehicle: carboxymethylcellulose (CMC) 109 % of control | dose: 100.0 mg/kg/injection, schedule: Q01DX001 (ip), vehicle: carboxymethylcellulose (CMC) 111 % of control | dose: 200.0 mg/kg/injection, schedule: Q01DX001 (ip), vehicle: carboxymethylcellulose (CMC) 109 % of control | dose: 400.0 mg/kg/injection, schedule: Q01DX001 (ip), vehicle: carboxymethylcellulose (CMC) 103 % of control

CCOc1ccc([N+](=O)[O-])cc1N(C)C(C)=O
inactive: dose: 75.0 mg/kg/injection, schedule: Q01DX001 (ip), vehicle: saline 102 % of control | dose: 150.0 mg/kg/injection, schedule: Q01DX001 (ip), vehicle: saline 102 % of control | dose: 300.0 mg/kg/injection, schedule: Q01DX001 (ip), vehicle: saline 107 % of control

Cc1c2ccccc2cc2c1ccc1cccc(F)c12
inactive: dose: 12.5 mg/kg/injection, schedule: Q01DX009 (ip), vehicle: saline with Tween-80 107 % of control | [11] 104 % of control | [12] 96 % of control

COC(OC)c1[nH]c(=S)[nH]c(=O)c1Cc1ccccc1
inactive: [11] 98 % of control | [12] 96 % of control | dose: 100.0 mg/kg/injection, schedule: Q01DX009 (ip), vehicle: saline with Tween-80 98 % of control | [1] 102 % of control | dose: 200.0 mg/kg/injection, schedule: Q01DX009 (ip), vehicle: saline with Tween-80 86 % of control | [10] 96 % of control | [2] 94 % of control

N#CC(C#N)=C1CCC(=C(C#N)C#N)CC1
inactive: [3] 104 % of control | [4] 105 % of control | [5] 121 % of control | [6] 118 % of control | dose: 200.0 mg/kg/injection, schedule: Q04DX003 (ip), vehicle: Klucel (hydroxypropylcellulose) (HPC) 96 % of control | [7] 105 % of control

O=C(Nc1ccc(C2=NCCN2)cc1)c1ccc(C(=O)Nc2ccc(C3=NCCN3)cc2)nc1
active: dose: 15.0 mg/kg/injection, schedule: Q01DX Z (ip), vehicle: carboxymethylcellulose (CMC) 228 % of control | dose: 16.0 mg/kg/injection, schedule: Q01DX Z (ip), vehicle: saline 221 % of control
inactive: dose: 1.0 mg/kg/injection, schedule: Q01DX Z (ip), vehicle: saline 108 % of control | dose: 2.0 mg/kg/injection, schedule: Q01DX Z (ip), vehicle: saline 119 % of control | dose: 30.0 mg/kg/injection, schedule: Q01DX Z (oral), vehicle: saline 104 % of control | dose: 60.0 mg/kg/injection, schedule: Q01DX Z (ip), vehicle: carboxymethylcellulose (CMC) 117 % of control | dose: 60.0 mg/kg/injection, schedule: Q01DX Z (oral), vehicle: saline 98 % of control | dose: 120.0 mg/kg/injection, schedule: Q01DX Z (oral), vehicle: saline 106 % of control | dose: 240.0 mg/kg/injection, schedule: Q01DX Z (oral), vehicle: saline 97 % of control | dose: 480.0 mg/kg/injection, schedule: Q01DX Z (oral), vehicle: saline 98 % of control | dose: 960.0 mg/kg/injection, schedule: Q01DX Z (oral), vehicle: saline 97 % of control

CC(C)CC(NC(=O)C(C)NC(=O)OCc1ccccc1)C(=O)OCc1ccccc1 (stereo not given)
inactive: [1] 92 % of control | [10] 92 % of control | [2] 91 % of control

O=C(O)COc1cc(Cl)ccn1
inactive: dose: 100.0 mg/kg/injection, schedule: Q04DX002 (ip), vehicle: Klucel (hydroxypropylcellulose) (HPC) 100 % of control | dose: 200.0 mg/kg/injection, schedule: Q04DX002 (ip), vehicle: Klucel (hydroxypropylcellulose) (HPC) 93 % of control | dose: 400.0 mg/kg/injection, schedule: Q04DX002 (ip), vehicle: Klucel (hydroxypropylcellulose) (HPC) 110 % of control

O=C(OC1CCC2CC21)c1ccc([N+](=O)[O-])cc1[N+](=O)[O-] (stereo not given)
inactive: [4] 98 % of control | [6] 95 % of control | [7] 106 % of control

CN1c2ccccc2NP1(=S)c1ccccc1 (stereo not given)
inactive: dose: 100.0 mg/kg/injection, schedule: Q04DX002 (ip), vehicle: saline with Tween-80 90 % of control | dose: 200.0 mg/kg/injection, schedule: Q04DX002 (ip), vehicle: saline with Tween-80 90 % of control | dose: 400.0 mg/kg/injection, schedule: Q04DX002 (ip), vehicle: saline with Tween-80 87 % of control

O=C1c2ccccc2C(=O)C1c1ccc2ccccc2n1
inactive: [1] 95 % of control | [10] 91 % of control | [2] 93 % of control

O=c1[nH]nnc2nn(C3OC(CO)C(O)C3O)cc12 (stereo not given)
inactive: dose: 100.0 mg/kg/injection, schedule: Q01DX005 (ip), vehicle: saline 103 % of control | dose: 200.0 mg/kg/injection, schedule: Q01DX005 (ip), vehicle: saline 109 % of control
